# In patent US9376369B2, “Anti-cholesterolemic compounds and methods of use” (priority 2006, dated 2016):
# Experiments:
# [1] = tested on: human aortic smooth muscle cells; test: Cholesterol biosynthesis ([14C]acetate incorporation) in cultured cells with ox-LDL; assay type: cell-based; conditions: for hypocholesterolemic activity: purified compounds isolated from EO, cell-based bioassay
# Experimental: Cells were incubated with aqueous extracts of O. sanctum (JH-1), EO (JH-2), W. somnifera (JH-3) and EuMil (JH-4) at concentration 500 μg/ml in medium supplemented with 100 μg/ml oxidized LDL. Cells incubated with 100 μg/ml ox-LDL served as a control. [14C] acetate (2 μCi/ml) was added and incorporation of radioactivity into cholesterol and cholesteryl esters was measured after 24 h of incubation in standard cell culture conditions. Lovastatin (10 μM) plus ox-LDL served as a positive control.
# H-ASMC (×10^5) were seeded in plastic 6-well trays and grown in smooth muscle cells medium-2 (Cambrex). Incubation was pursued in a water-jacketed incubator with 5% CO2 and 95% air. After the cells reached confluence medium was replaced by plain serum-free medium. Following incubation for 24 h fresh medium, 100 μg/ml ox-LDL and various herbal fractions solubilized in 12.5% DMSO were added. Cells that were incubated with lovastatin (10 μM) served as a positive control in all experiments.
# Cells were incubated with and without ox-LDL and EuMil/ingredients and [14C] acetate ([…], 24 h). Next, medium was removed; the monolayers were washed three times with PBS. Cells were extracted with hexane:isopropanol (3:2 by volume, 2×3 ml) at room temperature. The extracts were pooled in glass tubes and total lipid extract dried in nitrogen atmosphere. 1N NaOH (1 ml) was added to each tube to solubilize proteins and the incubated overnight in open air. Next, water (2 ml) was added to the air dried tubes, the contents were mixed and utilized for protein measurement using BCA protein assay kit (Pierce, Rockford, Ill.)
# The total lipid extracts were dried in stream of nitrogen, re-suspended in chloroform-methanol (2:1 by volume) and applied on a HPTLC silica gel plate. Standard solutions of cholesterol, monolein, diolein, triolein, fatty acid and cholesteryl oleate (50 μg each) also were applied to the plate. The plates were developed in heptane-ether-acetic acid (85:15:1 by volume). Following development, the plates were dried in air and exposed to an X-ray film for 2-3 days at […]. After the films were developed, the HPTLC plates were immersed in iodine vapors to identify the migration of individual neutral lipid molecular species. Gel areas, corresponding to cholesterol were scraped and radioactivity was measured using Beckman liquid scintillation spectrometer. The data was expressed as counts per mg protein. The incorporation of radioactivity in cells incubated with oxidized LDL was considered as 100% (control). All experimental values in cells treated with EuMil/ingredients plus oxidized LDL were expressed as a percentage of the control. All assays were conducted in triplicate.
# [2] = tested on: human aortic smooth muscle cells; test: Measurement of the level (mass) of cholesterol in cells; assay type: cell-based; conditions: active fractions 5 μg/ml
# Experimental: FIG. 9 is a graph showing the effect of active fractions from EO on cholesterol level in human ASMC. Cells were incubated with active fractions (5 μg/ml) and cholesterol mass was determined.
# Following treatment cells were extracted with hexane-isopropanol 3:2 by volume as described above. The pooled extracts were dried in a stream of nitrogen and subjected to measurement of total cholesterol mass using a cholesterol kit (WAKO chemicals, VA) with cholesterol as the standard. The data was expressed as μg cholesterol per mg protein.
# [3] = tested on: human aortic smooth muscle cells; test: Cholesterol efflux ([3H]cholesterol); assay type: cell-based; conditions: 24 h with fractions after [3H]cholesterol labelling
# F344 rats = conditions: both sexes, 5% GA in diet, week 1 to end of 13 weeks; cited from earlier work
# [4] = Behaviour of mucic acid gallates in aqueous solution; assay type: physicochemical; conditions: as previously reported [22]
# Excerpt: It should be noted that the mucic acid gallates derivatives 7 and 9 equilibrate in aqueous solutions as previously reported, while 1-methyl mucate-2-gallate (8) is not an artifact of the isolation procedure as it could be isolated when only ethanol, water and acetonitrile were used.
# H-ASMC = test: Cell proliferation ([3H]thymidine incorporation); assay type: cell-based, human
# Experimental: Following incubation for 18 h with and without ox-LDL and EuMil/ingredients and lovastatin [3H]thymidine ([…]) was added in 96 well dishes and incubation continued for 6 h at 37° C. Next, the cells were washed and the incorporation of [3H]thymidine into DNA was measured employing scintillation spectrometry. The data was calculated as dpm/well. All experimental values were expressed as a percentage of the control values (cells incubated with ox-LDL alone).
# [5] = tested on: human aortic smooth muscle cells; test: Cholesterol uptake ([3H]cholesterol); assay type: cell-based; conditions: [3H]cholesterol 5 μCi/ml, serum-free medium, 24 h
# Experimental: FIG. 11 is a graph showing the effect of active compounds from EO on uptake of cholesterol in human aortic smooth muscle cells. Confluent culture of cells grown in 96 well plates was incubated in serum-free medium with [3H]cholesterol (5 μCi/ml) with and without active fractions. After 24 h the uptake of cholesterol was measured by scintillation spectrometry.
# Confluent culture of human aortic smooth muscle cells were pre-incubated in serum-free DMEM for 24 h. Next, fresh medium and [3H]cholesterol (5 μCi/ml) plus various herbal compounds were added. Following incubation for 24 h and 48 h, [3H]cholesterol taken up by cell was measured by solubilization in 1 M NaOH and radioactivity measured.
# [6] = 10 μM plus 100 μg/ml ox-LDL, 24 h, ox-LDL alone = control
Compound,hypocholesterolemic activity [1],cellular mass / level of cholesterol in ASMC [2],other results
"O=C(OC[C@H]1OC(OC(=O)c2cc(O)c(O)c(O)c2)[C@H](O)[C@@H](O)[C@@H]1O)c1cc(O)c(O)c(O)c1 (some centres unmarked) [Compound 6, glucose-1,6-digallate (DGG16)]",hypocholesterolemic active compounds,effective in decreasing cholesterol level,–
"O=C(O)c1cc(O)c(O)c(O)c1 [Compound 1, gallic acid]",hypocholesterolemic active compounds,–,efflux of cholesterol from cultured H-ASMC [3]: effective; efflux of cholesterol from cultured H-ASMC ([3]; listed as gallate): very effective; body weight gain versus untreated controls (F344 rats): significantly lower
glucose-6-gallate (GG6) [Compound 5],hypocholesterolemic active compounds,effective in decreasing cholesterol level,–
mucic acid-2-gallate [Compound 7],hypocholesterolemic active compounds,effective in decreasing cholesterol level,stability in aqueous solutions [4]: equilibrate
"O=C(OC(C(=O)O)C1OC(=O)C(O)C1O)c1cc(O)c(O)c(O)c1 (centres unmarked) [Compound 9, mucic acid 1,4-lactone 5-gallate]",hypocholesterolemic active compounds,effective in decreasing cholesterol level,stability in aqueous solutions [4]: equilibrate
"O=C(O[C@@H]1O[C@H](CO)[C@@H](O)[C@H](O)[C@H]1O)c1cc(O)c(O)c(O)c1 [Compound 4, glucose-1-gallate (GG1)]",hypocholesterolemic active compounds,–,–
"CC[C@H](C)C(=O)O[C@H]1C[C@@H](C)C=C2C=C[C@H](C)[C@H](CC[C@@H]3C[C@@H](O)CC(=O)O3)[C@H]21 [Lovastatin, lovastatin, reference compound]",–,–,"effect on cell proliferation (H-ASMC): did not appear to inhibit; biosynthesis of cholesterol compared to control [1, 6]: ~20%; biosynthesis of cholesteryl esters compared to control [1, 6]: ~50%; inhibition of cholesterol uptake in H-ASMC [5]: not effective"
"O=C(OCC(O)CO)c1cc(O)c(O)c(O)c1 (centres unmarked) [Compound 3, glycerol-1-gallate]",hypocholesterolemic active compounds,–,–
"CCOC(=O)c1cc(O)c(O)c(O)c1 [Compound 2b, ethyl gallate]",hypocholesterolemic active compounds,–,–
"COC(=O)C(OC(=O)c1cc(O)c(O)c(O)c1)C(O)C(O)C(O)C(=O)O (centres unmarked) [Compound 8, 1-methyl mucate-2-gallate]",hypocholesterolemic active compounds,effective in decreasing cholesterol level,–
"COC(=O)c1cc(O)c(O)c(O)c1 [Compound 2a, methyl gallate]",hypocholesterolemic active compounds,–,efflux of cholesterol from cultured H-ASMC [3]: very effective; inhibition of cholesterol uptake in H-ASMC [5]: markedly inhibit
